PMC10960024, “Diindoles produced from commensal microbiota metabolites function as endogenous CAR/Nr1i3 ligands” (Nature Communications, 2024)
Values joined by “and” are separate entries in the source; they are usually repeats but may differ in a detail not shown here. Equal values may be shown once.

Experiments:
GST-hCAR-LBD = biological target: T1, GST-hCAR-LBD (Homo sapiens, UniProt Q14994); experiment: LanthaScreen TR-FRET PGC1α coactivator recruitment assay; type: biochemical
T1 construct: GST-hCAR-LBD (5 nM), terbium-labeled anti-GST antibody (5 nM); purchased Invitrogen A15141
T1 sequence (Q14994 109-352 limits assumed): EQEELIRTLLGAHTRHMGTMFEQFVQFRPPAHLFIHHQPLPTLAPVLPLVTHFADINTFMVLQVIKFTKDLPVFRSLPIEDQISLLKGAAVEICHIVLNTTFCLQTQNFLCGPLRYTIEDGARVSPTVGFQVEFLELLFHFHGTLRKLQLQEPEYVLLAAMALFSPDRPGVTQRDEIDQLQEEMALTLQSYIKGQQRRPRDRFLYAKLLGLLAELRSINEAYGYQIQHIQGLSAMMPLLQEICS
Procedure: LanthaScreen^TM TR-FRET hCAR coactivator assays were performed according to manufacturer’s instructions (Invitrogen, A15141). Test compounds were incubated for 2 h at room temperature with GST-hCAR-LBD (5 nM), terbium-labeled anti-GST antibody (5 nM), and Fluorescein-PGC1α coactivator peptide (125 nM). Incubations were performed in four technical replicates. TR-FRET emissions were measured using a Tecan Infinite F200 Fluorescence Microplate Reader. Results were expressed as the ratio of fluorescence intensity at 520 nm (fluorescein emission excited by terbium emissions) and 495 nm (terbium emissions).

hCAR LBD-SRC1 protein = biological target: T2, hCAR LBD-SRC1 protein (Homo sapiens, UniProt Q14994); experiment: Fluorescence thermal shift assay (TSA); type: binding; settings: for stabilization of CAR-LBD-SRC1 fusion (thermal stability): dose-response 0.4-50 µM; for Tm: diindoles at 12.5 µM, APO Tm 51.5 °C, means of triplicates
T2 construct: The human CAR LBD (Lys^108 – Ser^352) was amplified by PCR from cDNA; HIS6; made in house; host or cells: E. coli BL21(DE3)
T2 sequence (Q14994 108-352): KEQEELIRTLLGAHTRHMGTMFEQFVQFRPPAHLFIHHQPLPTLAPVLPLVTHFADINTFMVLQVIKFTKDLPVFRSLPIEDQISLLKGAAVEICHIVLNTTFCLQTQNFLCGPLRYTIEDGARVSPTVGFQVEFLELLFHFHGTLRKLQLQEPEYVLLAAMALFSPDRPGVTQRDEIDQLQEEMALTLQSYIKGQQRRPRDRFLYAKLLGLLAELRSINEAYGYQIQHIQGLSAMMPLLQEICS
Procedure: Purified hCAR LBD-SRC1 protein was assayed in 137 mM NaCl, 2.7 mM KCl, 10 mM Na2HPO4, and 1.8 mM KH2PO4, 0.5% DMSO, pH 7.4, at a final concentration of 2.2 µM. SYPRO Orange was used at a final concentration of 10× (Invitrogen, S6650). Each sample was divided into three 25 µL replicates. Sample solutions were dispensed into 96-well optical reaction plates (Thermo Fisher Scientific, 4306737) and sealed with optical PCR plate sheets (Thermo Fisher Scientific, AB-1170). TSA experiments were carried out using a QuantStudio 12 K Flex Real Time PCR System (Applied Biosystems). The temperature was ramped up from 25 °C to 95 °C at a rate of 0.3 °C/min, and SYPRO orange fluorescence monitored. Raw fluorescence data and melting temperatures were determined using nonlinear regression curve fitting using GraphPad Prism 9.

hCAR = biological target: T3, hCAR (Homo sapiens, UniProt Q14994); experiment: Bottom-up HDX-MS of hCAR with ligand; type: binding; settings: 100 µM ligand
T3 construct: The human CAR LBD (Lys^108 – Ser^352) was amplified by PCR from cDNA; HIS6; made in house; host or cells: E. coli BL21(DE3)
T3 sequence (Q14994 108-352): T2 sequence (Q14994 108-352)
Procedure: Human CAR protein was prepared at 10 µM in 100 mM ammonium acetate pH 7.25 and diluted into either equilibration buffer (10 mM phosphate buffer, pH 7.5) or deuterated reaction buffer (10 mM phosphate buffer, 150 mM NaCl, pH 7.5 in D2O). After labeling times of 1, 10 or 30 min at 25 °C, samples were mixed with equal volumes of quench buffer (100 mM phosphate buffer, pH 2.5) at 0 °C. […] HDX-MS was performed using a commercial Waters HDX system (M-class ACQUITY UPLC and Water Cyclic IMS Mass Spectrometer). Leucine enkephalin was used for mass correction, and all time points were carried out in triplicate. Samples were digested using an Enzymate BEH Pepsin column (2.1 × 30 mm, Waters) at 15 °C. Peptides were desalted on an ACQUITY UPLC BEH C18 VanGuard Pre-column (2.1 × 5 mm, Waters) and separated using an ACQUITY UPLC BEH C18 column (100 × 1 mm, Waters). ProteinLynx Global server (PLGS) and DynamX software was used for peptide identification and deuterium uptake analysis, respectively. PyMOL 2.5 was used for structural visualization.

Liver histology (H&E) = type: in vivo; settings: mouse, in vivo
Procedure: 12–15 week-old C57BL/6 J mice were obtained from Jackson Laboratories and were housed on a standard 12 h light/dark cycle. Nr1i3^−/− mice with C57BL/6 J background were obtained from David Moore’s lab (PMID: 11057673) at Baylor College of Medicine, and used at 13–26 weeks of age. Wild-type male, female and Nr1i3^−/− male mice were used in this study, due to known sex-specific CAR activities. Mice were housed in groups of 2–5 mice per cage on a standard 12 h light/dark cycle and fed with rodent chow diet (Inotiv, Teklad rodent diet 2918). Temperature was maintained at 21 °C with a range of 21–24 °C and humidity at 16–51%. National Institute of Health guidelines for the care and use of laboratory animals were followed with all experiments performed as directed by the Institutional Animal Care and Use Committee at the University of Illinois, Urbana-Champaign (UIUC, IACUC protocol: 22183). Mice were acclimatized to the UIUC mouse facility for 2 weeks prior to experiments. DIM and DIE were dissolved in 5% DMSO in corn oil and injected intraperitoneally at 25 mg/kg once daily for three days. After 4 h of the third injection, mice were sacrificed to collect serum, livers and intestines. TCPOBOP was dissolved in corn oil and injected intraperitoneally at 3 mg/kg once and the livers collected after 3 days for further studies. When used to block CAR activity, 100 mg/kg androstenol was injected intraperitoneally 15 min prior to the first DIM or DIE treatment. RNA from mice livers was isolated using TRIzol (Invitrogen) reagent using the manufacturer’s instructions. 3–5 µg of RNA was used to synthesize cDNA with random primers (NEBioLabs) and Maxima Reverse Transcriptase kits (Thermo Fisher Scientific). cDNA was further diluted, and 50 ng was used for SYBR green (Thermo Fisher Scientific) based qRT-PCR. Relative gene expression was calculated by the delta Ct method and normalized to 36b4 levels as loading controls. qPCR primers for gene expression analysis are listed in Supplementary Table 3. […]

[1] = system: mCAR target genes (cyp2b10, cyp3a11, sult2a1) in mouse liver; experiment: qPCR of mCAR target genes in mouse liver after intraperitoneal treatment; type: in vivo
Procedure: (§1) 12–15 week-old C57BL/6 J mice were obtained from Jackson Laboratories and were housed on a standard 12 h light/dark cycle. Nr1i3^−/− mice with C57BL/6 J background were obtained from David Moore’s lab (PMID: 11057673) at Baylor College of Medicine, and used at 13–26 weeks of age. Wild-type male, female and Nr1i3^−/− male mice were used in this study, due to known sex-specific CAR activities. Mice were housed in groups of 2–5 mice per cage on a standard 12 h light/dark cycle and fed with rodent chow diet (Inotiv, Teklad rodent diet 2918). Temperature was maintained at 21 °C with a range of 21–24 °C and humidity at 16–51%. National Institute of Health guidelines for the care and use of laboratory animals were followed with all experiments performed as directed by the Institutional Animal Care and Use Committee at the University of Illinois, Urbana-Champaign (UIUC, IACUC protocol: 22183). Mice were acclimatized to the UIUC mouse facility for 2 weeks prior to experiments. DIM and DIE were dissolved in 5% DMSO in corn oil and injected intraperitoneally at 25 mg/kg once daily for three days. After 4 h of the third injection, mice were sacrificed to collect serum, livers and intestines. TCPOBOP was dissolved in corn oil and injected intraperitoneally at 3 mg/kg once and the livers collected after 3 days for further studies. When used to block CAR activity, 100 mg/kg androstenol was injected intraperitoneally 15 min prior to the first DIM or DIE treatment. RNA from mice livers was isolated using TRIzol (Invitrogen) reagent using the manufacturer’s instructions. 3–5 µg of RNA was used to synthesize cDNA with random primers (NEBioLabs) and Maxima Reverse Transcriptase kits (Thermo Fisher Scientific). cDNA was further diluted, and 50 ng was used for SYBR green (Thermo Fisher Scientific) based qRT-PCR. Relative gene expression was calculated by the delta Ct method and normalized to 36b4 levels as loading controls. qPCR primers for gene expression analysis are listed in Supplementary Table 3.

[2] = biological target: T4, His-tagged CAR-LBD-SRC1 fusion protein (Homo sapiens, UniProt Q14994); experiment: Isothermal titration calorimetry (ITC); type: binding; settings: 25 °C; ligand 50 μM; mean of two independent experiments
T4 construct: The human CAR LBD (Lys^108 – Ser^352) was amplified by PCR from cDNA; HIS6; made in house; host or cells: E. coli BL21(DE3)
T4 sequence (Q14994 108-352): T2 sequence (Q14994 108-352)
Procedure: Purified hCAR-SRC1 protein (200–250 µM) was dissolved in 120 μL of PBS and supplemented with 0.5% DMSO. All experiments were performed in a MicroCal Auto-iTC200 instrument (Malvern Panalytical, Marlvern, United Kingdom) at 25 °C. Ligands were used at a concentration of 50 μM. Protein was titrated into cells in a series of 19 injections (injection 1 = 0.4 µL, injection 2–19 = 2 µL) 180 s apart. Control experiments performed by injection of the potein into […] yielded insignificant heats of dilution, and heat responses were subtracted. Integrated heat effects were analyzed using Microcal Origin 7 software (Malvern Instruments).

GAL4-hCAR LBD = biological target: T5, GAL4-hCAR LBD (Homo sapiens, UniProt Q14994); experiment: HEK293T GAL4-hCAR dual transfection reporter assay with PK11195 (antagonist displacement); type: cell-based; settings: for HEK293 GAL4-hCAR EC50: basal reporter activity reduced with 1 µM PK11195
T5 construct: chimeric yeast GAL4 DBD fused to an hCAR LBD; expressed in transfected cells; host or cells: HEK293T (ATCC, CRL-3216)
T5 sequence (Q14994 109-352 limits assumed): T1 sequence (Q14994 109-352 limits assumed)
Excerpt: The GAL4-hCAR, UAS-Luc, pcDNA-GAL4, pGL4-Renilla-Luc and pGEM plasmids were generously provided by Dr. David Mangelsdorf. The GAL4-hCAR plasmid encodes a constitutively expressed chimeric yeast GAL4 DBD fused to an hCAR LBD. The UAS-Luc plasmid encodes a Firefly luciferase reporter under the control of a GAL4 response element. The pcDNA plasmid encodes a constitutively expressed GAL4 DBD and was used as a control vector to determine non-specific luminescence in all HEK293T cellular reporter assays. The pGL4-Renilla-Luc plasmid encodes a constitutively expressed Renilla luciferase reporter and was used as a transfection control in the HEK293T cellular reporter assays.
HEK293T cells (ATCC, CRL-3216) were seeded at a density of 40,000 cells per well in white flat-bottom 96-well microplates (Greiner CellStar, 655073) in Dulbecco’s Modified Eagle Medium (DMEM) (2.5 g/l glucose) supplemented with 10% stripped fetal bovine serum with 100 units/ml of penicillin and incubated for 24 h at 37 °C. Transfection was carried out using 0.3 µL/well of Lipofectamine 2000 (Thermo Fisher Scientific, 11668019). Cells were transfected with 10 ng/well of either pcDNA or GAL4-hCAR, 50 ng/well of UAS-Luc, 5 ng/well of pGL4-Renilla-Luc, and 85 ng/well of pGEM for a total of 150 ng/well of DNA. […] Cells were incubated for 16-hours to allow build-up of luciferase and then processed using the Dual-Glo Luciferase Assay System (Promega, E2940) as per the manufacturer’s instructions. Incubations were performed in four technical replicates.

[3] = Liver-to-body weight ratio after treatment; type: in vivo; settings: post-treatment, compared to control
Procedure: as §1

## Clc1ccc(-c2nc3sccn3c2C=NOCc2ccc(Cl)c(Cl)c2)cc1 [CITCO, 6-(4-chlorophenyl)imidazo[2,1-b][1,3]thiazole-5-carbaldehyde-O-(3,4-dichlorobenzyl)oxime, reference compound]
GST-hCAR-LBD
  PGC1α cofactor recruitment: able to increase PGC1α recruitment beyond ‘constitutive’ levels
hCAR LBD-SRC1 protein
  stabilization of CAR-LBD-SRC1 fusion (thermal stability): no effect on thermal stability
hCAR
  deuterium uptake change, residues 235–243 (H12/AF2): decreased deuterium uptake
  deuterium uptake difference, amino acids 217–234 (H11): > 20%
  difference in deuterium uptake compared to apo hCAR, amino acids 51–65 (H3): > 20%

## C[C@]12CC[C@@H](O)C[C@@H]1CC[C@@H]1[C@@H]2CC[C@]2(C)C=CC[C@@H]12 [And, androstenol, reference compound]
Liver histology (H&E)
  liver histology (H&E) findings: occasional focal inflammation and mild cholangitis
[1]; 100 mg/kg i.p. 15 min prior to first DIM or DIE treatment
  CAR target gene expression after pre-treatment with inverse agonist: greatly reduced target gene expression
[1]; WT or Nr1i3-/- mice
  sult2a1 expression in liver: did not show significant responses
[1]; mouse liver, with or without And pre-treatment
  cyp3a11 expression in liver: increase rather than a decrease

## CCC(c1c[nH]c2ccccc12)c1c[nH]c2ccccc12 [DIP, 3,3’-diindolylpropane]
[2]
  Kd: 6000 nM
GAL4-hCAR LBD
  HEK293 GAL4-hCAR EC50: Ambiguous
hCAR LBD-SRC1 protein
  Tm: 59.1 °C

## CC(C)(c1ccc(O)cc1)c1ccc(O)cc1 [BPA, bisphenol A, reference compound]
hCAR LBD-SRC1 protein
  stabilization of CAR-LBD-SRC1 fusion (thermal stability): preferential stabilization

## CC(C)C(c1c[nH]c2ccccc12)c1c[nH]c2ccccc12 [iDIB, 3,3’-diindolyl-iso-butane]
GAL4-hCAR LBD
  HEK293 GAL4-hCAR EC50: Ambiguous
hCAR LBD-SRC1 protein
  Tm: 58.3 °C

## Clc1cnc(Oc2ccc(Oc3ncc(Cl)cc3Cl)cc2)c(Cl)c1 [TCPOBOP, 1,4-bis-[2-(3,5,-dichloropyridyloxy)] benzene, reference compound]
[1]; WT male mice, 3 mg/kg i.p. once, livers after 3 days
  mCAR target gene activation: highly activate mCAR target genes
[3]
  liver weight / liver-to-body weight ratio: significantly increased

## CCCC(c1c[nH]c2ccccc12)c1c[nH]c2ccccc12 [nDIB]
[2]
  Kd: 790 nM and 780 nM
GAL4-hCAR LBD; read-out: HEK293 GAL4-hCAR EC50
  EC50: 2360 nM
hCAR LBD-SRC1 protein
  Tm: 57.7 °C
